The source of these data is patent US20230220063A1, “IL-1BETA BINDING ANTIBODIES FOR USE IN TREATING CANCER” (NOVARTIS AG, priority 2017, published 2023).

Data set [1] can be described thus: Gevokizumab clinical pharmacokinetics. The class given is in vivo, human.
The test system of another data set is hsCRP. The data set can be described thus: Gevokizumab: hsCRP change in type 2 diabetes patients. The class given is in vivo, human. The following applies: top dose 0.3 mg/kg (~20 mg) Q4W.
Data set [2] deals with vasculature in trabecular bone. The data set can be described thus: Blocking IL-1β signalling: blood vessels in the bone microenvironment of mice. It is filed as in vivo. Here is the method:
Vasculature was visualised following CD34 and endomucin immunohistochemistry and the concentration of vascular endothelial growth factor (VEGF) and endothelin-1 in serum and/or bone marrow was determined by ELISA. Effects on bone volume were measured by Micro computed tomography (uCT).
(§1) Tumor cells, serum, and bone were subsequently resected for downstream analysis.

Data set [3] deals with patient-derived breast cancer cells. The data set can be described thus: Breast CSC mammosphere colony formation after exposure to human bone marrow in vitro. The class given is cell-based. An excerpt:
(§2) Dissemination of tumour cells to bone marrow is an early event in breast cancer, however these cells may lie dormant in the bone environment for many years prior to eventual colonisation. Treatment for bone metastases is not curative, therefore new adjuvant therapies preventing disseminated cells from becoming metastatic lesions may be an effective therapeutic option to improve clinical outcomes. There is evidence that cancer stemcells (CSCs) within breast tumours are the cells capable of metastasis; however, little is known about which bone marrow-derived factors support dormant CSC survival and eventual colonisation. Using in vitro culture of primary human bone marrow and patient-derived breast cancer cells, and in vivo metastasis models of human breast cancer cells implanted into mice, we investigated signalling pathways regulating CSC colony formation in bone.
(§3) Dissemination of tumour cells to bone marrow is an early event in breast cancer, but these cells may lie dormant in the bone environment for many years before the development of clinical bone metastases. There is evidence that cancer stem cells (CSCs) within breast tumours are the cells capable of metastasis, but the effect of the bone environment on the regulation of CSCs has not been investigated. […] CSC activity following isolation from the bone environment was measured using mammosphere colony formation.

For data set [4], the system named is MDA-MB-231 Luc2-TdTomato cells. The data set can be described thus: Spontaneous human breast cancer metastasis to human bone implants in NOD SCID mice. The class given is in vivo. Here is the method:
To model human breast cancer metastasis to human bone implants two human bone discs were implanted subcutaneously into 10-week old female NOD SCID mice (n=10/group) under isofluorane anaesthetic. Mice received an injection of 0.003 mg vetergesic and Septrin was added to the drinking water for 1 week following bone implantation. Mice were left for 4 weeks before injecting 1×10^5 MDA-MB-231 Luc2-TdTomato, MCF7 Luc2 or T47D Luc2 cells in 20% Martigel/79% PBS/1% […] into the two hind mammary fat pads. Primary tumor growth and development of metastases was monitored weekly using an IVIS […] system (Caliper Life Sciences) following sub-cutaneous injection of 30 mg/ml D-luciferin (Invitrogen). On termination of experiments mammary tumors, circulating tumor cells, serum and bone metastases were resected. RNA was processed for downstream analysis by real time PCR, and cell lysates were taken for protein analysis and whole tissue for histology as previously described (Nutter et al., 2014; Ottewell et al., 2014a).
as §1
Whole blood was centrifuged at 10,000 g for 5 minutes and the serum removed for ELISA assays. The cell pellet was re-suspended in 5 ml of FSM lysis solution (Sigma-Aldrich, Pool, UK) to lyse red blood cells. Remaining cells were re-pelleted, washed 3x in PBS and re-suspended in a solution of PBS/10% FCS. Samples from 10 mice per group were pooled prior to isolation of TdTomato positive tumor cells using a MoFlow High performance cell sorter (Beckman Coulter, Cambridge UK) with the […] laser line from a Coherent I-90C tenable argon ion (Coherent, Santa Clara, CA). TdTomato fluorescence was detected by a 555LP dichroic long pass and a 580/30 nm band pass filter. Acquisition and analysis of cells was performed using Summit 4.3 software. Following sorting cells were immediately placed in RNA protect cell reagent (Ambion, Paisley, Renfrew, UK) and stored at -80° C. before RNA extraction.

Data set [5] concerns human breast cancer cells. The data set can be described thus: Spontaneous bone metastasis of human breast cancer cells implanted into mice. To be noted: mouse.
Description: as §2, §3

With “gevokizumab: high-affinity, humanized monoclonal antibody of the IgG2 isotype to interleukin-1β; INN number 9310; allosteric inhibitor”, the Bioavailability result in data set [1] (administered subcutaneously) is recorded as “about 56%”. Moreover, the half-life entry in data set [1] (human, in vivo) is “about 35 days”. The “reduction of hsCRP” value in the data set on hsCRP is “up to 45%”.

Consider “Anakinra: IL-1 receptor antagonist, clinically available recombinant form of the receptor antagonist”, for which, in data set [2] (1 mg/kg for 21/31 days), the “average length of new blood vessels” value is “downwards trend”. Also, the “endothelin 1 and VEGF in the bone marrow (ELISA)” value in data set [2] (compared with control) is “reduced concentrations”. For the same molecule, in data set [2] (mice treated with 1 mg/kg for 21 days), the “decrease in VEGF concentration” value turned out to be 22%. Besides, in data set [2] (mice treated with 1 mg/kg for 31 days), the “decrease in the concentration of endothelin-1” value was found to be 69%. Moreover, the “average length of CD34^+ blood vessels in trabecular bone” value in data set [2] (p < 0.01 vs control) is “reduced the average length of CD34^+ blood vessels”. Further, the “induction of CSC activity by the bone marrow in vitro” value in data set [3] is recorded as “reverses induction of CSC activity”. In addition, the “mice with metastasis detected in human bone implants” value in data set [4] (1 mg/kg IL-1Ra daily or 10 mg/kg canakinumab s.c. every 14 days from day 7, control 7 out of 10) is 4 out of 10. The “bone metastasis, photons/sec mean values” in data set [4] (Placebo 3.60E+06) was 4.83E+04 photons/sec. For the same molecule, the “size of bone metastases” value in data set [4] (compared with control group) was “smaller than those detected in the control group”. In addition, in data set [4] (mouse, in vivo), the “bone turnover and neovascularisation” value is “reduced bone turnover and neovascularisation”; the “onset of breast cancer metastasis in human bone” value was “delayed onset of breast cancer metastasis in human bone”. In data set [4] (murine model of spontaneous human breast cancer metastasis to human bone), the primary tumour growth entry is on record as “without affecting the development of primary breast cancer”. The “tumor cells counted in whole blood” value in data set [4] (placebo 108 tumor cells/ml) is 3 tumor cells/ml.

B1: Vantictumab: a therapeutic antibody which binds 5/10 Frizzled receptors (anti-Wnt) (antibody, chains of the INN, looked up, V domains shown)
VH: EVQLVESGGGLVQPGGSLRLSCAASGFTFSHYTLSWVRQAPGKGLEWVSVISGDGSYTYYADSVKGRFTISSDNSKNTLYLQMNSLRAEDTAVYYCARNFIKYVFANWGQGTLVTVSS
VL: DIELTQPPSVSVAPGQTARISCSGDNIGSFYVHWYQQKPGQAPVLVIYDKSNRPSGIPERFSGSNSGNTATLTISGTQAEDEADYYCQSYANTLSLVFGGGTKLTVL
On to B1, for which the “induction of CSC activity by the bone marrow in vitro” value in data set [3] is reported as “reverses induction of CSC activity”. For the same molecule, in data set [5], the “spontaneous bone metastasis in vivo” value is listed as “prevents spontaneous bone metastasis”.
